The structures appear in SMILES notation. Structures can show the parent of a compound that is named as a salt.

This assay concerns the target T1, human SPNS2 (Homo sapiens, UniProt Q8IVW8).
T1 construct: expressed in transfected cells; host or cells: Saccharomyces cerevisiae strain with forced expression of a mammalian SphK and human SPNS2
T1 sequence (Q8IVW8 1-549): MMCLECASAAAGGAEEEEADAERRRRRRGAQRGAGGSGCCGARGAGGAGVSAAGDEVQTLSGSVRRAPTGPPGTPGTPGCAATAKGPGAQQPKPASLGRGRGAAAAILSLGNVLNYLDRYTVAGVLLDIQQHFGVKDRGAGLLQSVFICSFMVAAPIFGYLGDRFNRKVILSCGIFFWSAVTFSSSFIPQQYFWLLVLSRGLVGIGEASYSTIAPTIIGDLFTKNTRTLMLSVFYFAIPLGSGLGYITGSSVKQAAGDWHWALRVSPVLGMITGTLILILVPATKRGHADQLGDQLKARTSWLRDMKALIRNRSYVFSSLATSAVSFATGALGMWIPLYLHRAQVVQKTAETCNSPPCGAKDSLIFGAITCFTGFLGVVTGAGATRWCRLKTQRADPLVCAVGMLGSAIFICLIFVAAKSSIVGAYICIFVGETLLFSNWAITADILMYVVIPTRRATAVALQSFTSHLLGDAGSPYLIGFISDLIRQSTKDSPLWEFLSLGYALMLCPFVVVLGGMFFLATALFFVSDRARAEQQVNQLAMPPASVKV
Put plainly: S1P transporter assay: growth of S. cerevisiae strain with forced expression of a mammalian SphK and human SPNS2. The assay is classed as cell-based. The note with it: in vitro inhibition of SPNS2; growth of S. cerevisiae strain expressing mammalian SphK and human SPNS2; compounds as their pharmaceutical salts. The method in brief:
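S. cerevisiae strain with forced expression of a mammalian SphK and human SPNS2; since excess phospho-LCB inhibits yeast growth, SPNS2 inhibitors reduce growth of this strain. Inhibition measured in vitro as decreased strain growth.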
As a reminder, the IC50 is the concentration that inhibits the measured activity by half. In the case of `C/C(=N\OCCCCc1ccccc1)c1ccc(-c2noc([C@@H]3CCN(C(=N)N)C3)n2)cc1` [Compound 40a, (R)-3-(3-(4-(1-((4-phenylbutoxy)imino)ethyl)phenyl)-1,2,4-oxadiazol-5-yl)pyrrolidine-1-carboximidamide hydrochloride], the IC50 is at most 2000 nM. The figure for `C/C(=N\OCc1cc(C(F)(F)F)cc(C(F)(F)F)c1)c1ccc(-c2noc([C@@H]3CCN(C(=N)N)C3)n2)cc1` [Compound 40b, (R)-3-(3-(4-(1-(((3,5-bis(trifluoromethyl)benzyl)oxy)imino)ethyl)phenyl)-1,2,4-oxadiazol-5-yl)pyrrolidine-1-carboximidamide hydrochloride] is at most 2000 nM; for `C/C(=N\OCc1ccc(C(F)(F)F)cc1)c1ccc(-c2noc([C@@H]3CCN(C(=N)N)C3)n2)cc1` [Compound 40c, (R)-3-(3-(4-(1-(((4-(trifluoromethyl)benzyl)oxy)imino)ethyl)phenyl)-1,2,4-oxadiazol-5-yl)pyrrolidine-1-carboximidamide hydrochloride] it is over 2000 nM.

In the case of `C/C(=N\OCc1ccc(-c2ccccc2)cc1)c1ccc(-c2noc([C@@H]3CCN(C(=N)N)C3)n2)cc1` [Compound 40d, (R)-3-(3-(4-(1-(([1,1′-biphenyl]-4-ylmethoxy)imino)ethyl)phenyl)-1,2,4-oxadiazol-5-yl)pyrrolidine-1-carboximidamide hydrochloride], the IC50 is at most 2000 nM. The figure for `C/C(=N\OCc1cccc(-c2ccccc2)c1)c1ccc(-c2noc([C@@H]3CCN(C(=N)N)C3)n2)cc1` [Compound 40e, (R)-3-(3-(4-(1-(([1,1′-biphenyl]-3-ylmethoxy)imino)ethyl)phenyl)-1,2,4-oxadiazol-5-yl)pyrrolidine-1-carboximidamide hydrochloride] is at most 2000 nM. The figure for `C/C(=N\OC(C)c1ccccc1)c1ccc(-c2noc([C@@H]3CCN(C(=N)N)C3)n2)cc1` (stereo partly drawn) [Compound 40f, hydrochloride] is over 2000 nM; for `C/C(=N\OCc1ccccc1)c1ccc(-c2noc([C@@H]3CCN(C(=N)N)C3)n2)cc1` [Compound 40g, (R)-3-(3-(4-(1-((benzyloxy)imino)ethyl)phenyl)-1,2,4-oxadiazol-5-yl)pyrrolidine-1-carboximidamide hydrochloride] it is over 2000 nM; for `C/C(=N\OCc1ccc2c(c1)C(C)(C)CCC2(C)C)c1ccc(-c2noc([C@@H]3CCN(C(=N)N)C3)n2)cc1` [Compound 40h, (R)-3-(3-(4-(1-(((5,5,8,8-tetramethyl-5,6,7,8-tetrahydronaphthalen-2-yl)methoxy)imino)ethyl)phenyl)-1,2,4-oxadiazol-5-yl)pyrrolidine-1-carboximidamide hydrochloride] it is at most 2000 nM. For `CCCCCCCO/N=C(\C)c1ccc(-c2noc([C@@H]3CCN(C(=N)N)C3)n2)cc1` [Compound 40i, (R)-3-(3-(4-(1-((heptyloxy)imino)ethyl)phenyl)-1,2,4-oxadiazol-5-yl)pyrrolidine-1-carboximidamide hydrochloride], the IC50 was at most 2000 nM.

Turning to `CCCCCCCCCO/N=C(\C)c1ccc(-c2noc([C@@H]3CCN(C(=N)N)C3)n2)cc1` [Compound 40j, (R)-3-(3-(4-(1-((nonyloxy)imino)ethyl)phenyl)-1,2,4-oxadiazol-5-yl)pyrrolidine-1-carboximidamide hydrochloride], the IC50 is over 2000 nM. The figure for `C/C(=N\OCc1ccc(C(C)(C)C)cc1)c1ccc(-c2noc([C@@H]3CCN(C(=N)N)C3)n2)cc1` [Compound 40k, (R)-3-(3-(4-(1-(((4-(tert-butyl)benzyl)oxy)imino)ethyl)phenyl)-1,2,4-oxadiazol-5-yl)pyrrolidine-1-carboximidamide hydrochloride] is at most 2000 nM; for `CCCCCO/N=C(\C)c1ccc(-c2noc([C@@H]3CCN(C(=N)N)C3)n2)cc1` [Compound 40l, (R)-3-(3-(4-(1-((pentyloxy)imino)ethyl)phenyl)-1,2,4-oxadiazol-5-yl)pyrrolidine-1-carboximidamide hydrochloride] it is over 2000 nM; for `C/C(=N\OCc1ccc(F)cc1)c1ccc(-c2noc([C@@H]3CCN(C(=N)N)C3)n2)cc1` [Compound 40m, (R)-3-(3-(4-(1-(((4-fluorobenzyl)oxy)imino)ethyl)phenyl)-1,2,4-oxadiazol-5-yl)pyrrolidine-1-carboximidamide hydrochloride] it is over 2000 nM. The figure for `C/C(=N\OCc1ccc(Br)cc1)c1ccc(-c2noc([C@@H]3CCN(C(=N)N)C3)n2)cc1` [Compound 40n, (R)-3-(3-(4-(1-(((4-bromobenzyl)oxy)imino)ethyl)phenyl)-1,2,4-oxadiazol-5-yl)pyrrolidine-1-carboximidamide hydrochloride] is over 2000 nM.

Consider `CCCCCCCCNC(=O)c1ccc(-c2noc([C@@H]3CCN(C(=N)N)C3)n2)cc1` [Compound 40p, (R)-4-(5-(1-carbamimidoylpyrrolidin-3-yl)-1,2,4-oxadiazol-3-yl)-N-octylbenzamide hydrochloride], for which the concentration for half-maximal inhibition (IC50) is over 2000 nM.
